Assay results published in article PMC3723855, “R31C GNRH1 Mutation and Congenital Hypogonadotropic Hypogonadism” (PLoS ONE, 2013).
“Also recorded” adds a separate entry of the source. Where two headings read alike, the source gives them in different places. Each block holds one compound with its values, some of them ahead of it.

Assays:
human GnRH receptor = assay: SRE-coupled luciferase assay in HEK293T cells co-transfected with human GnRH receptor; format: cell-based; details: for EC50: human GnRH receptor
Experimental: Figure 3 SRE-coupled luciferase assay. (A) HEK293T cells were exposed to graded concentrations of wild type (WT) GnRH, R31C and equimolar concentrations of WT + R31C during five hours. Luciferase activity arbitrary units by luminometry (a.u.) have been shown as ratio on beta-galactosidase activity by optical density used as transfection efficiency internal control. This experience was conducted eight times. (B) Representation of individual values of EC-50 (calculated with Arcsin “P” root transformation) from n = 8 dose-response experiments.
luc2P/SRE/Hygro plasmid (Promega, Madison, WI) was used to test luciferase production in response to MAP kinase activation as a reporter gene system. HEK293T cells (1.2×10^4 cells/well) were seeded 72 h before testing in high-glucose Dulbecco's minimal essential medium (DMEM, Invitrogen, Cergy Pontoise, France) containing 2 mM glutamine, 100 IU/mL penicillin, […] streptomycin, and 10% heat-inactivated fetal calf serum at 37°C in 96-well plates. Twenty-four hours before testing, cells were co-transfected in serum free OptiMEM, using Lipofectamine 2000 (Invitrogen, Cergy Pontoise, France) with the plasmids for human GnRH receptor, luc2P/SRE/Hygro and pMIR-REPORT™ beta-galactosidase vector (Applied Biosystems, Foster City, CA). […] After 5 h-incubation cells were harvested and assayed for luciferase activities as previously described, using a luminometer (Victor, Perkin Elmer, Waltham, MA). To standardize for transfection efficiency, the relative light units were normalized by the galactosidase activity at optical density. EC-50 and Emax values were calculated using Graphpad Prism (GraphPad Software Inc).

LbetaT2 cells = assay: Intracellular calcium mobilization (Fura2) in LbetaT2 cells; format: cell-based, murine; details: for calcium mobilisation: 10 nM, LbetaT2 cells
Experimental: Figure 5 Effect of treatments on intracellular calcium mobilization. Cells were loaded with Fura 2-AM. At the time of the experiment 100 µM EGTA was added 30 sec before addition of 300 µM of CaCl2 (Ca^2+) to the medium as indicated, and cells were then stimulated with 10 nM of wild type (WT), mutant (R31C) or equimolar combination (10 nM WT +10 nM R31C) or vehicle for 3 min. In the upper panel, representative curves of single cell recording. Each experiment mean was analysed using One-way ANOVA followed by Tukey's Multiple comparison test. In the lower panels, histograms show the means ± SEM (n = 4) of the response to ligands as calcium peak and as area under the curve (AUC). […] Representative of at least three independent experiments, *p<0.05.
LbetaT2 cells were kept in serum free medium overnight and then loaded with 2 µM Fura2-AM for 45 min at 37°C. The experiment was conducted in HEPES buffer (in mM; 116 NaCl, 5.6 KCl, 1.2 MgCl2, 5 NaHCO3, 1 NaH2PO4, 20 HEPES ph 7.4) in presence of extracellular Ca^2+ (EGTA 100 µM + CaCl2 300 µM). Single images of fluorescent emission at 510 nm under excitation at 340 and 380 nm were taken every 5 Sec. Changes in [Ca^2+]i in response to GnRHs were monitored using the Fura2 340/380 fluorescence ratio. Basal ratio was arbitrarily considered as 1. Ca^2+ responses over basal level were given either as maximal rise of [Ca^2+]i or as area under the curve (for 2 min after agonist addition).

[1] = Peptide stability in solution, LC-MS/MS
Experimental: LC-MS/MS was performed with Quattro-LCZ triple quadrupole mass spectrometer equipped with the orthogonal electrospray source (Micromass, Manchester, UK) to analyze peptides stability in solution. Peptides solutions (water and cell culture medium) were incubated 24-h at room temperature for these stability studies.
Peptides were measured in aqueous solution at pH 7 and starved overnight at 37°C.

lhb (LbetaT2 cells) = assay: lhb transcription (RT-qPCR) in LbetaT2 cells; format: cell-based, mouse; details: for lhb transcription versus WT GnRH: 10 nM R31C; for lhb transcript levels: 10 nM, n = 7 in duplicates, p<0.01 for WT, not significant for R31C
Experimental: Figure 7 Effects of treatments on lhb transcription and LH secretion. […] After five hours treatment cells were lysed for RNA extraction (Trizol®). Mouse lhb levels were analyzed by quantitative real time RT-qPCR. Values are expressed as individual ratios on 18S and represented as fold induction on vehicle as means ± SEM, **p<0.01. This experience was conducted n = 7 times in duplicates. (B) LH concentrations from LbetaT2 cells culture media. Cells were starved overnight in serum-free DMEM and incubated with 10 nM WT, 10 nM R31C, 10 nM WT +10 nM R31C, or vehicle for 5 hours. LH levels were measured by a combined rat/mouse RIA. Values are expressed as individual values and as means ± SEM, *p<0.05, ***p<0.001. The experiment was conducted four times and each sample was assayed in duplicates.
LbetaT2 cells were grown at 10^6/well in 6-well plates and starved in serum-free DMEM 18 h before tests. […]
Lhb (murine LH beta subunit) transcript was quantified by real-time RT-PCR, using an ABI Step One Sequence Detector (Applied Biosystem, Foster City, CA) as previously described.

GnRH-R = assay: Binding after pre-incubation and washout (covalent binding test), transfected COS-7 cells; design: species or system human; details: for covalent binding to receptor / subsequent binding of radiolabeled GnRH analog after pre-incubation and washing: WT GnRH 10^−8 M or R31C GnRH 10^−5 M, 2 h, 4°C, washed, 1 h, two experiments in triplicate
Experimental: Figure 2 Binding of WT and R31C GnRH to the GnRH receptor (GnRH-R). […] Data are the means of two experiments performed in triplicate.
We hypothesized that the cysteine in position 8 of the R31C GnRH might form disulfide bridges with cysteine residues in the receptor that are not in disulfide bridges. There are three such cysteines: cysteine 218, cysteine 279 and cysteine 317. In order to examine this possibility the effects of R31C GnRH pre-incubation on subsequent binding of a radio-labelled GnRH analog was examined. […] After treatment, the cells were extensively washed to remove all non-covalently bound peptide.

ERK1/2 (LbetaT2 cells) = assay: ERK1/2 phosphorylation Western blot in LbetaT2 cells; format: cell-based, murine
Experimental: Figure 4 ERK1/2 phosphorylation by Western blot. (A) LbetaT2 cells were starved overnight in serum-free DMEM and then treated by 10 nM WT, 10 nM R31C, 10 nM WT +10 nM R31C peptides or vehicle for 0, 5, 10 and 30 minutes. Representative of four experiments. […] Lysates were analyzed by Western Blotting using phospho-ERK1/2 antibodies (Cell Signaling®, open arrow) and mouse monoclonal anti alpha-tubulin (Sigma Aldrich®, St. Louis, MO, close arrow). Similar results on ERK intensity and kinetics were obtained using transiently transfected HEK293T cells.
LbetaT2 cells were starved 18 h in serum-free DMEM before treatments, then exposed to 10 nM of WT, 10 nM of R31C, the combination of 10 nM of each peptide or vehicle. Cells were harvested at 0, 5, 10, 15 and 30 minutes after treatment. Western blotting analyses were performed as previously described.

[2] = R31C 10^−10 M to 10^−6 M in combination with WT GnRH at 10^−9 M
[3] = 10 nM R31C, 3 min, EGTA 100 µM + CaCl2 300 µM, n = 4, p<0.05
[4] = aqueous solution at pH 7, overnight at 37°C, mass spectrometry-coupled electrospray (Fig. S1)

dimerization ([1]; 24 h, room temperature, water and culture medium, LC-MS/MS): No dimerization
formation of R31C dimers [1, 4]: absent
formation of smaller fragments [1, 4]: negligible
stability over 24-hours ([1]; culture medium, room temperature, 24 h, LC-MS/MS): stable
stability over 24-hours ([1]; water, room temperature, 24 h, LC-MS/MS): stable
Structure (SMILES): CC(C)C[C@H](NC(=O)CNC(=O)[C@H](Cc1ccc(O)cc1)NC(=O)[C@H](CO)NC(=O)[C@H](Cc1c[nH]c2ccccc12)NC(=O)[C@H](Cc1c[nH]cn1)NC(=O)[C@@H]1CCC(=O)N1)C(=O)N[C@@H](CS)C(=O)N1CCC[C@H]1C(=O)NCC(N)=O [R31C GnRH]
maximal stimulation / agonism, SRE-luciferase (human GnRH receptor; HEK293T, 5 h, R31C compared with WT): full agonist; also recorded: able to elicit the same maximal stimulation
EC50 (human GnRH receptor; HEK293T, 5 h, n = 8 dose-response experiments, Arcsin "P" root transformation, spread not defined, p<0.0001, read-out: EC-50, SRE-luciferase (Fig. 3B)): 313 ± 130 nM
impact of added R31C GnRH on SRE-luciferase with WT GnRH (human GnRH receptor; [2]): failed to have any impact
SRE-luciferase activity / potency (human GnRH receptor; R31C GnRH versus WT): very low activity
reduction of R31C agonist versus WT, SRE-luciferase (human GnRH receptor; R31C versus WT, dose-response curves): ~100 fold
calcium area under the curve (AUC) versus WT (LbetaT2 cells; [3]): significantly reduced compared to WT; also recorded: significantly lower than WT
calcium peak versus WT (LbetaT2 cells; [3]): significantly reduced compared to WT; also recorded: significantly lower than WT
calcium mobilisation (LbetaT2 cells): very low activity
calcium mobilisation (LbetaT2 cells; listed as R31C peptide): weaker responses
impact of added R31C GnRH on Ca2+ signaling with WT GnRH (LbetaT2 cells; [2]): failed to have any impact
lhb transcription versus WT GnRH (lhb (LbetaT2 cells); 5 hours): very low activity
lhb transcription versus WT GnRH (lhb (LbetaT2 cells); 5 hours, listed as R31C peptide): weaker responses
influence of R31C GnRH on stimulation of lhb transcription by WT GnRH (lhb (LbetaT2 cells); 10 nM WT + 10 nM R31C, 5 hours): unable to influence the stimulation of lhb transcription
lhb transcript levels (lhb (LbetaT2 cells); 5 hours): did not significantly increase these levels over baseline
impact of added R31C GnRH on lhb transcription with WT GnRH (lhb (LbetaT2 cells); [2]): failed to have any impact
receptors occupied in pre-incubation (GnRH-R; R31C GnRH (10^−5 M in method and Fig. 2B), determined from the competition binding study): 50%
covalent binding to receptor / subsequent binding of radiolabeled GnRH analog after pre-incubation and washing (GnRH-R): does not form covalent disulfide bonds with the receptor
ERK1/2 phosphorylation versus WT GnRH (ERK1/2 (LbetaT2 cells); 10 nM, LbetaT2 cells, four experiments): very low activity
ERK1/2 phosphorylation versus WT GnRH (ERK1/2 (LbetaT2 cells); 10 nM, LbetaT2 cells, four experiments, listed as R31C peptide): weaker responses
effect of increasing R31C dose on ERK1/2 phosphorylation by WT GnRH (ERK1/2 (LbetaT2 cells); R31C from 10 nM to 300 nM with 10 nM WT GnRH, 5 minutes exposure): did not reduce ERK1/2 phosphorylation

EC50 (human GnRH receptor; HEK293T, 5 h, p<0.0001 WT vs R31C, read-out: EC-50, SRE-luciferase): 4 nM
formation of smaller fragments [1, 4]: absent
Structure (SMILES): CC(C)C[C@H](NC(=O)CNC(=O)[C@H](Cc1ccc(O)cc1)NC(=O)[C@H](CO)NC(=O)[C@H](Cc1c[nH]c2ccccc12)NC(=O)[C@H](Cc1c[nH]cn1)NC(=O)[C@@H]1CCC(=O)N1)C(=O)N[C@@H](CCCNC(=N)N)C(=O)N1CCC[C@H]1C(=O)NCC(N)=O [WT GnRH, reference compound]
calcium mobilisation (LbetaT2 cells): rapid and transient calcium mobilisation
lhb transcript levels (lhb (LbetaT2 cells); 5 hours): significantly increased lhb transcript levels
covalent binding to receptor / subsequent binding of radiolabeled GnRH analog after pre-incubation and washing (GnRH-R): can be fully removed from the receptor
receptors occupied in pre-incubation (GnRH-R; WT GnRH at 10^−8 M): 50%
time of maximal ERK1/2 phosphorylation (ERK1/2 (LbetaT2 cells); 10 nM, LbetaT2 cells, 0-30 minutes, four experiments): 5 min
